Four molecules from ChEMBL document CHEMBL1149598, “Synthesis of neutral and cationic tripyridylporphyrin-D-galactose conjugates and the photoinactivation of HSV-1” (Bioorg Med Chem, 2007) can be followed below.

Data set [1] is described as follows: Photostability assessed after irradiation with 50 mW/cm^2 white light for 1 min. Format: ADME.
A short description of data set [2]: Photostability assessed after irradiation with 50 mW/cm^2 white light for 3 mins. Particulars: 0.05 h. The format is ADME.
Data set [3] can be described thus: Photostability assessed after irradiation with 50 mW/cm^2 white light for 5 mins. Format: ADME.
The nature of data set [4]: Photostability assessed after irradiation with 50 mW/cm^2 white light for 10 mins. Format: ADME.
The nature of data set [5]: Photostability assessed after irradiation with 50 mW/cm^2 white light for 15 mins. Conditions: 0.25 h. The format is ADME.
The nature of data set [6]: (§1) Phototoxicity against 50 mW/cm^2 white light irradiated Vero cells assessed as viable cells pretreated at 0.01 uM after 48 hrs by MTT assay. The format is cell-based. Particulars: chlorocebus sabaeus, Vero cells; read-out: Activity.
A short description of data set [7]: (§2) Phototoxicity against 50 mW/cm^2 white light irradiated Vero cells assessed as viable cells pretreated at 0.05 uM after 48 hrs by MTT assay. The format is cell-based. Conditions: chlorocebus sabaeus, Vero cells; read-out: Activity.
The nature of data set [8]: (§3) Phototoxicity against 50 mW/cm^2 white light irradiated Vero cells assessed as viable cells pretreated at 0.1 uM after 48 hrs by MTT assay. Format: cell-based. Conditions: chlorocebus sabaeus, Vero cells; read-out: Activity.
Data set [9] is described as follows: (§4) Phototoxicity against 50 mW/cm^2 white light irradiated Vero cells assessed as viable cells assessed as viable cells pretreated at 0.5 uM after 48 hrs by MTT assay. Format: cell-based. Particulars: chlorocebus sabaeus, Vero cells; read-out: Activity. Background: Tetrazolium dyes change colour on reduction, which living cells bring about.
A short description of data set [10]: (§5) Phototoxicity against 50 mW/cm^2 white light irradiated Vero cells assessed as viable cells pretreated at 1.0 uM after 48 hrs by MTT assay. The format is cell-based. Particulars: chlorocebus sabaeus, Vero cells; read-out: Activity.
Data set [11] is described as follows: (§6) Phototoxicity against 50 mW/cm^2 white light irradiated Vero cells assessed as viable cells pretreated at 2.5 uM after 48 hrs by MTT assay. Format: cell-based. Particulars: chlorocebus sabaeus, Vero cells; read-out: Activity.
In data set [12] the test system is Human alphaherpesvirus 1. The experiment in a line: Virucidal activity against HSV1 at 0.02 uM. Format: functional. Particulars: for inhibition at 0.02 µM: Human alphaherpesvirus 1.
The subject of data set [13] is Human alphaherpesvirus 1. The experiment in a line: (§7) Virucidal effect against HSV1 pretreated at 0.02 uM after 5 mins of irradiation with 50 mW/cm^2 white light. Conditions: for inhibition at 0.02 µM: Human alphaherpesvirus 1, light or radiation study. The format is functional.
In data set [14] the test system is Human alphaherpesvirus 1. The data set is described as §7. The format is functional. Conditions: for inhibition at 0.02 µM: Human alphaherpesvirus 1, light or radiation study. This is another data set of the same source.
The test system of data set [15] is Human alphaherpesvirus 1. The experiment in a line: Inhibition of HSV1 infected Vero cells treated at 0.02 uM assessed virus yield under dark condition. Format: functional. Conditions: Human alphaherpesvirus 1, Vero.
The test system of data set [16] is Human alphaherpesvirus 1. The experiment in a line: Inhibition of HSV1 infected Vero cells treated at 0.02 uM assessed virus yield after 2 hrs under dark condition. The format is functional. Particulars: Human alphaherpesvirus 1, Vero.
The test system of data set [17] is Human alphaherpesvirus 1. The experiment in a line: Inhibition of HSV1 infected Vero cells treated at 0.02 uM assessed virus yield after 4 hrs under dark condition. Conditions: Human alphaherpesvirus 1, Vero. The format is functional.
Data set [18] deals with Human alphaherpesvirus 1. The experiment in a line: Inhibition of HSV1 infected Vero cells treated at 0.02 uM assessed virus yield after 16 hrs under dark condition. Format: functional. Particulars: Human alphaherpesvirus 1, Vero.
Data set [19] concerns Human alphaherpesvirus 1. The experiment in a line: Inhibition of HSV1 infected Vero cells treated at 0.02 uM assessed virus yield irradiated with 50 mW/ cm^2 white light for 15 mins. The format is functional. Particulars: Human alphaherpesvirus 1, Vero, light or radiation study, 0.25 h.
The test system of data set [20] is Human alphaherpesvirus 1. The experiment in a line: Inhibition of HSV1 infected Vero cells treated at 0.02 uM assessed virus yield after 2 hrs of irradiated with 50 mW/ cm^2 white light for 15 mins. Format: functional. Particulars: Human alphaherpesvirus 1, Vero, light or radiation study.
Data set [21] concerns Human alphaherpesvirus 1. The experiment in a line: Inhibition of HSV1 infected Vero cells treated at 0.02 uM assessed virus yield after 4 hrs of irradiated with 50 mW/ cm^2 white light for 15 mins. Format: functional. Particulars: Human alphaherpesvirus 1, Vero, light or radiation study.
Data set [22] has as its system Human alphaherpesvirus 1. The experiment in a line: Inhibition of HSV1 infected Vero cells treated at 0.02 uM assessed virus yield after 16 hrs of irradiated with 50 mW/ cm^2 white light for 15 mins. Conditions: Human alphaherpesvirus 1, Vero, light or radiation study. The format is functional.
Data set [23] deals with Vero. The description is as §1. The format is cell-based. Conditions: chlorocebus sabaeus, vero, 48 h, 0.01 µM.
The test system of data set [24] is Vero. The data set is described as §2. The format is cell-based. Particulars: chlorocebus sabaeus, vero, 48 h, 0.05 µM.
For data set [25], the system named is Vero. Described as §3. Conditions: chlorocebus sabaeus, vero, 48 h, 0.1 µM. Format: cell-based.
Data set [26] deals with Vero. The description is as §4. Format: cell-based. Particulars: chlorocebus sabaeus, vero, 48 h, 0.5 µM.
Data set [27] concerns Vero. Described as §5. Format: cell-based. Conditions: chlorocebus sabaeus, vero, 48 h, 1 µM.
In data set [28] the test system is Vero. The data set is described as §6. Format: cell-based. Conditions: chlorocebus sabaeus, vero, 48 h, 2.5 µM.

By inhibition is commonly meant the share of the control response that was lost under treatment. As for `O=C(OC[C@H]1OC(O)[C@H](O)[C@@H](O)[C@H]1O)c1ccc(-c2c3nc(c(-c4ccncc4)c4ccc([nH]4)c(-c4ccncc4)c4nc(c(-c5ccncc5)c5ccc2[nH]5)C=C4)C=C3)cc1` (some centres undefined), the Activity in data set [1] stood at 100%; in data set [2], 98%; in [3], 97%; in [4], 88%; in [5], 83%. The viability at 48 h, 0.01 µM in [6] was found to be 108%. Moreover, the viability at 48 h, 0.05 µM in [7] was 98.4%. Besides, the viability at 48 h, 0.1 µM in data set [8] worked out at 92.3%. The viability at 48 h, 0.5 µM in data set [9] came to 55.5%. For the same molecule, the viability at 48 h, 1 µM in data set [10] worked out at 27.2%. Besides, the viability at 48 h, 2.5 µM in data set [11] was 4.4%. The inhibition at 0.02 µM in data set [12] worked out at 28.6%; in data set [13], 44.5%; in [14], 85.6%; in data set [15], 0%; in [16] it was 0%; in data set [17], 0%. In addition, the inhibition at 0.02 µM turned out to be 45.8% in data set [18]; 71.1% in [19]; 79.2% in data set [20]; 93.6% in data set [21]; 95.7% in data set [22].

Consider `C[n+]1ccc(-c2c3nc(c(-c4cc[n+](C)cc4)c4ccc([nH]4)c(-c4cc[n+](C)cc4)c4nc(c(-c5ccc(C(=O)O)cc5)c5ccc2[nH]5)C=C4)C=C3)cc1.[I-].[I-].[I-]`, for which the Activity in [1] worked out at 98%; in data set [2], 98%; in data set [3], 98%; in [4], 98%; in data set [5], 97%. The viability at 48 h, 0.01 µM in [6] was 110%. Also, the viability at 48 h, 0.05 µM in [7] was 98.6%. The viability at 48 h, 0.1 µM in data set [8] was 96.7%. The viability at 48 h, 0.5 µM in data set [9] is 89.2%. For the same molecule, the viability at 48 h, 1 µM in data set [10] was determined as 76.6%. In addition, in data set [11], the viability at 48 h, 2.5 µM worked out at 56.3%. The values for the inhibition at 0.02 µM in data set [12], in data set [13] and in data set [14] were 16.7%, 50% and 63.3%, respectively.

As a reminder, the Inhibition is the share of the control response that was lost under treatment. In the case of `CC1(C)O[C@H]2[C@@H](O1)[C@@H](COC(=O)c1ccc(-c3c4nc(c(-c5ccncc5)c5ccc([nH]5)c(-c5ccncc5)c5nc(c(-c6ccncc6)c6ccc3[nH]6)C=C5)C=C4)cc1)O[C@@H]1OC(C)(C)O[C@@H]12`, the Activity worked out at 98% in data set [1]; 98% in data set [2]; 98% in data set [3]; 94% in data set [4]; 93% in data set [5]; 100.8% in data set [23]. Besides, the Activity in [24] came out at 96.4%; in [25], 93.9%; in [26], 36.4%; in data set [27] it was 14.4%; in data set [28], 6.4%. The Inhibition in data set [12] turned out to be 27.7%; in data set [13], 36.4%; in data set [14], 78.9%.

With `O=C(O)c1ccc(-c2c3nc(c(-c4ccncc4)c4ccc([nH]4)c(-c4ccncc4)c4nc(c(-c5ccncc5)c5ccc2[nH]5)C=C4)C=C3)cc1` [PORPHIRIN], the Activity in data set [1] was 99%; in data set [2], 99%; in data set [3], 96%; in data set [4] it was 92%; in data set [5], 87%. Further, the viability at 48 h, 0.01 µM in data set [6] was found to be 105%. In addition, the viability at 48 h, 0.05 µM in data set [7] stood at 95.7%. Also, in [8], the viability at 48 h, 0.1 µM turned out to be 90.6%. For the same molecule, the viability at 48 h, 0.5 µM in data set [9] is 76.6%. For the same molecule, the viability at 48 h, 1 µM in data set [10] was found to be 39.7%. In addition, in data set [11], the viability at 48 h, 2.5 µM was found to be 11.4%. Further, the figures for the inhibition at 0.02 µM in data set [12], in data set [13] and in data set [14] were 8.9%, 52.9% and 90.5%, respectively.
